Results from publication PMC8308784, “Novel Purine Chemotypes with Activity against Plasmodium falciparum and Trypanosoma cruzi” (Pharmaceuticals, 2021).
Where two headings read alike, the source gives them in different places.

Columns and labels:
Assay type in all cases: cell-based
[1] = test system: T. cruzi Tulahuen strain expressing β-galactosidase; test: anti-T. cruzi dose-response growth inhibition assay (Vero cells plus trypomastigotes, CPRG readout); conditions: anti-T. cruzi IC50 of non-progressed compounds, read-out: Dose-response assay IC50
Experimental: (§1) T. cruzi parasites from the Tulahuen strain (discrete typing unit (DTU) VI) expressing β-galactosidase were maintained in culture by the infection of LLC-MK2 cells in DMEM supplemented with 2% FBS and 1% penicillin–streptomycin–glutamine (PSG), as described in [52]. When free-swimming trypomastigotes were released to the culture medium, they were centrifuged for 7 min at 2500 rpm and allowed to swim out of the pellet. Trypomastigotes were used to maintain the parasite cycle, or for the performance of the antiparasitic assays.
(§2) T. cruzi growth was primarily analyzed under three different concentrations (100, 10, and 1 mM) of the 81 compounds. Conditions were tested in triplicate for every concentration. Z-values varied between 0.81 and 0.92 in the different plates analyzed. Selected compounds (34.6% potential hit rate) were further analyzed via standard growth inhibition assays. The Z-values of dose–response assays correlated with those previously reported. For both assays, Vero cells and trypomastigotes from the Tulahuen T. cruzi strain expressing β-galactosidase were harvested, centrifuged, and resuspended in DMEM without phenol red supplemented with 1% PSG, 2% FBS, 1 mM sodium pyruvate, and 25 mM HEPES. Vero cells and trypomastigotes were counted, diluted at a concentration of 1 × 10^6 cells/mL each, and mixed 1:1 (v/v). Then, 100 μL of that mixture was added per well to the plates already containing the compounds. Each well contained 50,000 host cells and 50,000 parasites, i.e., multiplicity of infection (MOI) = 1. BNZ was used as control of maximal drug growth inhibition in each round, whereas each plate contained its own negative control (maximum parasite growth; Vero cells plus parasites without drugs) and positive control (minimum parasite growth; trypomastigote forms alone marking an enzymatic zero time or baseline galactosidase activity). After four days at 37 °C, 50 µL of a PBS solution containing 0.25% NP40 and 500 µM chlorophenol red-β-D-galactopyranoside (CPRG) substrate were added per well [32]. Plates were incubated at 37 °C for 4 h, and their absorbance read out at 590 nm using an Epoch Gene5 spectrophotometer.
(§3) Absorbance values derived from the anti-T. cruzi assays and fluorescence values from the anti-P. falciparum and cell toxicity assays were normalized to the controls. In the primary screening at three fixed doses, the compounds’ inhibitory activity was expressed as a percentage of the negative control (100% parasitic growth). In dose–response assays, the compounds’ IC50 and TC50 values were determined with GraphPad Prism 7 software (version 7.00, 2016), using a non-linear regression analysis model defined by the following equation: Y=100 ÷(1+10^((LogIC50−X)×HillSlope))

[2] = test system: T. cruzi Tulahuen strain expressing β-galactosidase; test: T. cruzi primary screening at three fixed concentrations
Experimental: as §1
as §2, with “T. cruzi growth was primarily analyzed under three different concentrations (100, 10, and 1 mM) of the 81 compounds.” left out
as §3

P. falciparum 3D7 = test: P. falciparum primary screening at three fixed concentrations; conditions: average of at least three experiments; for activity at 1 µM / activity at 10 µM / activity at 100 µM: Plasmodium falciparum, read-out: Primary screening, parasite growth relative to the negative control; for activity at 1 µM: 3D7, compound at 1 µM; for activity at 10 µM: 3D7, compound at 10 µM; for activity at 100 µM: 3D7, compound at 100 µM
Experimental: Apicomplexan parasite cultures were maintained at 3% hematocrit under an atmosphere of 37 °C in 93% N2, 5% CO2, and 2% O2, following standard methods. Synchronized cultures were obtained via 5% sorbitol lysis.
[…] Conditions were tested in triplicate for every concentration, and the test was repeated when the standard deviation was above 10% for any concentration. Z-values varied between 0.83 and 0.98 in the different plates analyzed. Selected compounds (12.3% potential hit rate) were further analyzed via standard growth inhibition assays, carried out as previously described in [54]. Briefly, parasitemia was adjusted to 1–1.3%, with >90% rings after sorbitol synchronization. Two hundred microliters of parasite culture were plated in 96-well microplates and incubated for 48 h at 37 °C in the presence of decreasing concentrations of the tested compounds, in triplicate. Parasitemia was determined by fluorescence-assisted cell sorting (FACS). Non-infected RBCs and samples containing parasitized RBCs (including controls with DMSO as carrier solvent) were diluted in PBS to a final concentration of ~1–10 × 10^6 cells/mL. The cell suspension was stained with SYTO 11 (0.5 mM stock in DMSO, Thermo Fisher Scientific, Waltham, MA, USA), to a final concentration of 0.5 μM. Samples were analyzed in a Becton Dickinson FACSCalibur. Sample excitation was carried out using a 488-nm, air-cooled argon-ion laser at a power of 15 mW, using forward and side scatter to gate the RBC population, and SYTO 11 green fluorescence (530 nm, FITC filter) was collected in a logarithmic scale. The single-cell population was selected on a forward–side scattergram, and the green fluorescence from this population was analyzed. Parasitemia was expressed as the number of parasitized cells per 100 erythrocytes.
as §3

[3] = compound at 1 µM, average of at least three independent experiments
[4] = compound at 10 µM, average of at least three independent experiments

Row | Structure (SMILES) | IC50 ([1]; Trypanosoma cruzi, TULAHUEN, Vero) | activity at 100 µM ([2]; Trypanosoma cruzi, TULAHUEN, read-out: Primary screening, growth inhibition values at 100 µM) | activity at 1 µM ([2]; Trypanosoma cruzi, TULAHUEN, compound at 1 µM, average of at least three independent experiments, read-out: Primary screening, growth inhibition values at 1 µM) | activity at 10 µM ([2]; Trypanosoma cruzi, TULAHUEN, compound at 10 µM, average of at least three independent experiments, read-out: Primary screening, growth inhibition values at 10 µM) | activity at 1 µM (P. falciparum 3D7) | activity at 10 µM (P. falciparum 3D7) | activity at 100 µM (P. falciparum 3D7) | Primary screening, growth inhibition values at 1 µM [2, 3] | Primary screening, growth inhibition values at 10 µM [2, 4] | Primary screening, parasite growth relative to the negative control (P. falciparum 3D7; compound at 1 µM) | Primary screening, parasite growth relative to the negative control (P. falciparum 3D7; compound at 10 µM) | Primary screening, parasite growth relative to the negative control (P. falciparum 3D7; compound at 100 µM) | IC50 [1]
1 | CC(C)(C)Nc1ncnc2c1nc(-c1ccccc1)n2C(C)(C)C [Compound 1B] | 68.4 µM | 12.7% | 96.3% | 93% | 112% | 108% | 69.5% | – | – | – | – | – | –
2 | Cc1nc2c(NC(C)(C)C)ncnc2n1C(C)(C)C [Compound 2A] | – | – | – | – | – | – | – | 96.86 | 88.71 | 110.87% | 112.26% | 30.73% | –
3 | CC(C)(C)Nc1ncnc2c1ncn2C(C)(C)C [Compound 3F] | – | – | – | – | – | – | – | – | – | 110.21% | 108.90% | 35.36% | 64.7 µM
4 | Cc1nc2c(OCc3ccccc3)ncnc2n1N(C)C [Compound 4M] | – | – | – | – | – | – | – | 88.68 | 89.08 | 100.27% | 101.23% | 88.99% | –
5 | CN(C)n1c(-c2ccccc2)nc2c(OCc3ccccc3)ncnc21 [Compound 4] | – | – | – | – | – | – | – | 94.81 | 89.88 | 97.86% | 97.42% | 96.42% | –
6 | c1ccc(COc2ncnc3c2ncn3N2CCCCC2)cc1 [Compound 13H] | – | – | – | – | – | – | – | 92.39 | 93.99 | 100.86% | 97.31% | 67.76% | –
7 | Cc1nc2c(OCc3ccccc3)ncnc2n1N1CCCCC1 [Compound 13M] | – | – | – | – | – | – | – | 91.73 | 92.01 | 101.41% | 100.79% | 87.03% | –
8 | c1ccc(COc2ncnc3c2nc(-c2ccccc2)n3N2CCOCC2)cc1 [Compound 21] | – | – | – | – | – | – | – | – | – | 96.68% | 87.35% | 81.22% | 34.8 µM
9 | Cc1nc2c(OCc3ccccc3)ncnc2n1N1CCOCC1 [Compound 22] | – | – | – | – | – | – | – | – | – | 97.98% | 78.53% | 73.65% | –
10 | c1ccc(COc2ncnc3c2ncn3N2CCOCC2)cc1 [Compound 23] | – | – | – | – | – | – | – | 93.82 | 94.90 | 101.16% | 104.67% | 98.97% | –
11 | CN1CCN(n2c(-c3ccccc3)nc3c(OCc4ccccc4)ncnc32)CC1 [Compound 27] | – | – | – | – | – | – | – | – | – | 97.79% | 87.07% | 63.16% | 33.2 µM
12 | Cc1nc2c(OCc3ccccc3)ncnc2n1N1CCN(C)CC1 [Compound 28] | – | – | – | – | – | – | – | – | – | 90.78% | 89.44% | 44.36% | 40.4 µM
13 | CCOc1ncnc2c1ncn2C(C)C [MJ1] | – | – | – | – | – | – | – | 94.41 | 97.93 | 102.27% | 99.79% | 94.06% | –
14 | Cc1nc2c(OCc3ccccc3)ncnc2n1C(C)C [MJ5] | – | – | – | – | 100% | 94.6% | 88.5% | 89.81 | 90.91 | – | – | – | –
15 | CCOc1ncnc2c1ncn2Cc1ccccc1 [MJ7] | – | – | – | – | 104% | 105% | 53.8% | 79.69 | 95.54 | – | – | – | –
16 | CCOc1ncnc2c1nc(C)n2Cc1ccccc1 [MJ8] | – | – | – | – | – | – | – | – | – | 107.34% | 100.82% | 82.46% | 67.9 µM
17 | CC(C)Oc1ncnc2c1ncn2C(C)C [MJ16] | – | – | – | – | 111% | 115% | 102% | 100.79 | 96.93 | – | – | – | –
18 | Cc1nc2c(OC(C)C)ncnc2n1C(C)C [MJ17] | – | – | – | – | – | – | – | 97.87 | 93.73 | 105.71% | 108.49% | 94.00% | –
19 | CCOc1ncnc2c1ncn2C(C)(C)C [MJ24] | – | – | – | – | – | – | – | – | – | 103.15% | 102.53% | 74.90% | 96.6 µM
